What was measured:
human PDGFRβ = target: T1, human PDGFRβ (Homo sapiens, UniProt P09619); assay: PDGFRβ HTRF Assay (assay 6); assay type: biochemical; details: pIC50 class; 10 μM ATP; read-out: Enzymatic PDGFRβ activity (assay 6)
T1 construct: C-terminal fragment of human PDGFRβ (amino acids 561-1106); GST; His; purchased Proqinase [Freiburg i.Brsg., Germany]; host or cells: insect cells [SF9]
From the text: Assay 6: PDGFRβ HTRF Assay
PDGFRβ inhibitory activity of compounds of the present invention was quantified employing the PDGFRβ HTRF assay as described in the following paragraphs.
As kinase, a GST-His fusion protein containing a C-terminal fragment of human PDGFRβ (amino acids 561-1106, expressed in insect cells [SF9] and purified by affinity chromatography, purchased from Proqinase [Freiburg i.Brsg., Germany] was used. As substrate for the kinase reaction the biotinylated poly-Glu, Tyr (4:1) copolymer (#61GT0BLA) from Cis Biointernational (Marcoule, France) was used.
For the assay 50 nl of a 100 fold concentrated solution of the test compound in DMSO was pipetted into a black low volume 384 well microtiter plate (Greiner Bio-One, Frickenhausen, Germany), 2 μl of a solution of PDGFRβ in aqueous assay buffer [50 mM HEPES/NaOH pH 7.5, 10 mM MgCl2, 2.5 mM dithiothreitol, 0.01% (v/v) Triton-X100 (Sigma)] were added and the mixture was incubated for 15 min at 22° C. to allow pre-binding of the test compounds to the enzyme before the start of the kinase reaction. Then the kinase reaction was started by the addition of 3 μl of a solution of adenosine-tri-phosphate (ATP, 16.7 μM=>final conc. in the 5 μl assay volume is 10 μM) and substrate (2.27 μg/ml=>final conc. in the 5 μl assay volume is 1.36 μg/ml [˜30 nM]) in assay buffer and the resulting mixture was incubated for a reaction time of 25 min at 22° C. The concentration of PDGFRβ in the assay was adjusted depending of the activity of the enzyme lot and was chosen appropriate to have the assay in the linear range, typical enzyme concentrations were in the range of about 125 pg/μl (final conc. in the 5 μl assay volume). The reaction was stopped by the addition of 5 μl of a solution of HTRF detection reagents (200 nM streptavidine-XLent [Cis Biointernational] and 1.4 nM PT66-Eu-Chelate, an europium-chelate labelled anti-phospho-tyrosine antibody from Perkin Elmer) in an aqueous EDTA-solution (100 mM EDTA, 0.2% (w/v) bovine serum albumin in 50 mM HEPES/NaOH pH 7.5).
The resulting mixture was incubated 1 h at 22° C. to allow the binding of the biotinylated phosphorylated peptide to the streptavidine-XLent and the PT66-Eu-Chelate. Subsequently the amount of phosphorylated substrate was evaluated by measurement of the resonance energy transfer from the PT66-Eu-Chelate to the streptavidine-XLent. Therefore, the fluorescence emissions at 620 nm and 665 nm after excitation at 350 nm was measured in a HTRF reader, e.g. a Rubystar (BMG Labtechnologies, Offenburg, Germany) or a Viewlux (Perkin-Elmer). The ratio of the emissions at 665 nm and at […] was taken as the measure for the amount of phosphorylated substrate. […]

[1] = target: T2, human insuline receptor (Ins-R) (Homo sapiens, UniProt P06213); assay: Insulin Receptor HTRF Assay (assay 4); assay type: biochemical; details: pIC50 class; 10 μM ATP; read-out: Enzymatic InsR activity (assay 4)
T2 construct: GST-tagged recombinant kinase domain of the human insuline receptor; GST; purchased ProQinase, Freiburg, Germany; host or cells: SF-9 cells
Description: Assay 4: Insulin Receptor HTRF Assay
Inhibitory activity of compounds against the kinase activity of the insulin receptor was quantified employing the Ins-R HTRF assay as described in the following paragraphs.
GST-tagged recombinant kinase domain of the human insuline receptor (Ins-R, purchase from ProQinase, Freiburg, Germany) expressed in SF-9 cells was used as kinase. As substrate for the kinase reaction biotinylated poly-(Glu, Tyr) (Cis biointernational, France) was used.
Ins-R was incubated for 20 min at 22° C. in the presence of different concentrations of test compounds in 5 μl assay buffer [50 mM Hepes/NaOH pH 7, 15 mM MnCl2, 1 mM dithiothreitol, 0.1 μM sodium ortho-vanadate, 0.015% (v/v) PEG20000, 10 μM adenosine-tri-phosphate (ATP), 0.3 μg/ml substrate, 1% (v/v) dimethylsulfoxide]. The concentration of Ins-R was adjusted depending of the activity of the enzyme lot and was chosen appropriate to have the assay in the linear range, typical concentrations were in the range of 10 pg/μl. The reaction was stopped by the addition of 5 μl of a solution of HTRF detection reagents (0.1 μM streptavidine-XLent and 1 nM PT66-Eu-Chelate, an europium-chelate labelled anti-phospho-tyrosine antibody from Perkin Elmer) in an aqueous EDTA-solution (80 mM EDTA, 0.2% (w/v) bovine serum albumin in 50 mM HEPES/NaOH pH 7.0).
The resulting mixture was incubated 1 h at 22° C. to allow the binding of the biotinylated phosphorylated peptide to the streptavidine-XLent and the PT66-Eu-Chelate. Subsequently the amount of phosphorylated substrate was evaluated by measurement of the resonance energy transfer from the PT66-Eu-Chelate to the streptavidine-XLent. Therefore, the fluorescence emissions at 620 nm and 665 nm after excitation at 350 nm was measured in a HTRF reader, e.g. a Rubystar (BMG Labtechnologies, Offenburg, Germany) or a Viewlux (Perkin-Elmer). The ratio of the emissions at 665 nm and at […] was taken as the measure for the amount of phosphorylated substrate. The data were normalised (enzyme reaction without inhibitor=0% inhibition, all other assay components but no enzyme=100% inhibition) and IC50 values were calculated by a 4 parameter fit using an inhouse software.

T2 sequence (P06213 1023-1298 limits assumed): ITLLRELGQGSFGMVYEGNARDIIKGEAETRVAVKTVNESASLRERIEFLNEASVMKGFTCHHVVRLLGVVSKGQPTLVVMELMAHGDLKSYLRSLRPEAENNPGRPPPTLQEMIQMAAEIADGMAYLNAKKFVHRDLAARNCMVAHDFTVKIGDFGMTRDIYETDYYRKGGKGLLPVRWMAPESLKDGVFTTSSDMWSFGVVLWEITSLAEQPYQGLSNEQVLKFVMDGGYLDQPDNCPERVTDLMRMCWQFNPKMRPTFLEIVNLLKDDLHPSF
T1 sequence (P09619 561-1106): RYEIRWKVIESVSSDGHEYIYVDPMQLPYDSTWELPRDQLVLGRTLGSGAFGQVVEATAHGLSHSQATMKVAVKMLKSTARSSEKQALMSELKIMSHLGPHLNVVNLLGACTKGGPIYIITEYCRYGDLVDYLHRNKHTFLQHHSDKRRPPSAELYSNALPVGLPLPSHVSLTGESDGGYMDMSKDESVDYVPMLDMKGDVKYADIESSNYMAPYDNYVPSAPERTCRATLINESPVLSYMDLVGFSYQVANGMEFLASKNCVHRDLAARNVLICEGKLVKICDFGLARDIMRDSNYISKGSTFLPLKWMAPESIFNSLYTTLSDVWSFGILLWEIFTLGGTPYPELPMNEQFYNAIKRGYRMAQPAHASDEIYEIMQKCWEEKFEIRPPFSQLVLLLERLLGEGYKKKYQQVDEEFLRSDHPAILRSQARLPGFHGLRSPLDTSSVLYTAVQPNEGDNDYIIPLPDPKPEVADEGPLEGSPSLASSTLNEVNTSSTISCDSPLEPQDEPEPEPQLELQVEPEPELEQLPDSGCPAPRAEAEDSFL

Row | SMILES | IC50 (human PDGFRβ) [µM] | IC50 [1] [µM]
1 | Cn1ncc2c(C#Cc3cc(NC(=O)c4cccc(C(F)(F)F)c4)ccc3F)cncc21 [Example 1.9, N-[4-Fluoro-3-(1-methyl-1H-pyrazolo[3,4-c]pyridin-4-ylethynyl)-phenyl]-3-trifluoromethyl-benzamide] |  | ≥ 10
2 | Cn1ncc2c(C#Cc3cccc(NC(=O)c4cccc(C(F)(F)F)c4)c3)cncc21 [Example 1.5, N-[3-(1-Methyl-1H-pyrazolo[3,4-c]pyridin-4-ylethynyl)-phenyl]-3-trifluoromethyl-benzamide] | < 1 | ≥ 10
3 | Cc1ccc(NC(=O)c2cccc(C(F)(F)F)c2)cc1C#Cc1cncc2c1cnn2C [Example 1.6, N-[4-Methyl-3-(1-methyl-1H-pyrazolo[3,4-c]pyridin-4-ylethynyl)-phenyl]-3-trifluoromethyl-benzamide] | < 1 | ≥ 10

Further lines, results first:

Row | IC50 (human PDGFRβ) [µM] | IC50 [1] [µM] | SMILES
4 | < 1 |  | Cn1ncc2c(C#Cc3cccc(NC(=O)Nc4ccccc4)c3)cncc21 [Example 2.1, 1-[3-(1-Methyl-1H-pyrazolo[3,4-c]pyridin-4-ylethynyl)-phenyl]-3-phenyl-urea]
5 | < 1 |  | Cc1ccc(NC(=O)Nc2cccc(C(F)(F)F)c2)cc1C#Cc1cncc2c1cnn2C [Example 2.4, 1-[4-Methyl-3-(1-methyl-1H-pyrazolo[3,4-c]pyridin-4-ylethynyl)-phenyl]-3-(3-trifluoromethyl-phenyl)-urea]
